Assay results taken from US11951108B2, “Combination therapy for treating cancer” (Epizyme, Inc., priority 2016, dated 2024).
Where two headings read alike, the source gives them in different places. Values belong to the molecule of their own block, whether it stands above or below them.

How the values were obtained:
A2780 = experiment: In vitro combination study, ovarian cancer cell line A2780
TOV112D = experiment: In vitro combination study, ovarian cancer cell line TOV112D; conditions: 4+3 model
RMUGS* = experiment: In vitro combination study, ovarian cancer cell line RMUGS; conditions: 7+3 model
COV644* = experiment: In vitro combination study, ovarian cancer cell line COV644; conditions: COV644*; 7+3 model
KURAMOCHI = experiment: In vitro combination study, ovarian cancer cell line KURAMOCHI; conditions: KURAMOCHI; 4+3 model
CAOV-3 = experiment: In vitro combination study, ovarian cancer cell line CAOV-3; type: cell-based; conditions: 4+3 model
OVISE = experiment: In vitro combination study, ovarian cancer cell line OVISE; conditions: OVISE; 4+3 model
SKOV3 = experiment: In vitro combination study, ovarian cancer cell line SKOV3; conditions: 4+3 model
SNU840 = experiment: In vitro combination study, ovarian cancer cell line SNU840; conditions: SNU840; 4+3 model
CAMA-1 = experiment: In vitro combination study, breast cancer cell line CAMA-1; type: cell-based; conditions: ER/PR +/−, HER2 +, 7 day pre-treatment + 6 day co-treatment
BT549 = experiment: In vitro combination study, breast cancer cell line BT549; conditions: ER/PR −/−, HER2 −, 7 day pre-treatment + 6 day co-treatment
HCC1419 = experiment: In vitro combination study, breast cancer cell line HCC1419; conditions: ER/PR −/−, HER2 +, 7 day pre-treatment + 6 day co-treatment
SUM159PT = experiment: In vitro combination study, breast cancer cell line SUM159PT; conditions: ER/PR −/−, HER2 −, 7 day pre-treatment + 6 day co-treatment
MDA-MB-175VII = experiment: In vitro combination study, breast cancer cell line MDA-MB-175VII; conditions: ER/PR +/+, HER2 +, 7 day pre-treatment + 6 day co-treatment
ES-2 = experiment: In vitro combination study, ovarian cancer cell line ES-2; conditions: 4+3 model
SUM52PE = experiment: In vitro combination study, breast cancer cell line SUM52PE; conditions: ER/PR −/−, HER2 −, 7 day pre-treatment + 6 day co-treatment
JH)S-4 = experiment: In vitro combination study, ovarian cancer cell line JH)S-4; conditions: 4+3 model
TOV21G = experiment: In vitro combination study, ovarian cancer cell line TOV21G; type: cell-based; conditions: 4+3 model
OV-90 = experiment: In vitro combination study, ovarian cancer cell line OV-90; conditions: OV-90; 4+3 model
OVMANA = experiment: In vitro combination study, ovarian cancer cell line OVMANA; conditions: OVMANA; 4+3 model
COV362 = experiment: In vitro combination study, ovarian cancer cell line COV362; conditions: COV362; 4+3 model
OVSAHO = experiment: In vitro combination study, ovarian cancer cell line OVSAHO; conditions: 4+3 model
BT474 = experiment: In vitro combination study, breast cancer cell line BT474; conditions: ER/PR +/+, HER2 +, 7 day pre-treatment + 6 day co-treatment
DU4475 = experiment: In vitro combination study, breast cancer cell line DU4475; conditions: ER/PR −/−, HER2 −, 7 day pre-treatment + 6 day co-treatment

Synergy or antagonism of second agent with tazemetostat (IC50 shift of second agent) (A2780; A2780, 4+3 model): C (Synergy > 2× IC50 shift) | Synergy or antagonism of second agent with tazemetostat (IC50 shift of second agent) (TOV112D): C (Synergy > 2× IC50 shift)
Molecule: CC1(C)CCC(CN2CCN(c3ccc(C(=O)NS(=O)(=O)c4ccc(NCC5CCOCC5)c([N+](=O)[O-])c4)c(Oc4cnc5[nH]ccc5c4)c3)CC2)=C(c2ccc(Cl)cc2)C1 [ABT199]

Synergy or antagonism of second agent with tazemetostat (IC50 shift of second agent) (CAMA-1): A (Antagonism)
Molecule: CCc1cnn2c(NCc3ccc[n+]([O-])c3)cc(N3CCCC[C@H]3CCO)nc12 [Dinaciclib]

Synergy or antagonism of second agent with tazemetostat (IC50 shift of second agent) (BT549): A (Antagonism) | Synergy or antagonism of second agent with tazemetostat (IC50 shift of second agent) (HCC1419): C (Synergy > 2× IC50 shift) | Synergy or antagonism of second agent with tazemetostat (IC50 shift of second agent) (SUM159PT): C (Synergy > 2× IC50 shift) | Synergy or antagonism of second agent with tazemetostat (IC50 shift of second agent) (MDA-MB-175VII): C (Synergy > 2× IC50 shift)
Molecule: CO[C@H]1C[C@@H]2CC[C@@H](C)[C@@](O)(O2)C(=O)C(=O)N2CCCC[C@H]2C(=O)O[C@H]([C@H](C)C[C@@H]2CC[C@@H](OCCO)[C@H](OC)C2)CC(=O)[C@H](C)/C=C(\C)[C@@H](O)[C@@H](OC)C(=O)[C@H](C)C[C@H](C)/C=C/C=C/C=C/1C [Everolimus]

Synergy or antagonism of second agent with tazemetostat (IC50 shift of second agent) (ES-2): A (Antagonism)
Molecule: Cc1ccc(NC(=O)c2ccc(CN3CCN(C)CC3)cc2)cc1Nc1nccc(-c2cccnc2)n1 [Imatinib]

Synergy or antagonism of second agent with tazemetostat (IC50 shift of second agent) (CAMA-1): C (Synergy > 2× IC50 shift) | Synergy or antagonism of second agent with tazemetostat (IC50 shift of second agent) (SUM52PE): C (Synergy > 2× IC50 shift) | Synergy or antagonism of second agent with tazemetostat (IC50 shift of second agent) (HCC1419): C (Synergy > 2× IC50 shift)
Molecule: NC(=O)c1ccc(I)c([N+](=O)[O-])c1 [Iniparib (BSI 201), Iniparib]

Synergy or antagonism of second agent with tazemetostat (IC50 shift of second agent) (A2780; A2780, 4+3 model): B (Synergy > 4× IC50 shift) | Synergy or antagonism of second agent with tazemetostat (IC50 shift of second agent) (SUM159PT): C (Synergy > 2× IC50 shift)
Molecule: O=C(c1cc(Cc2n[nH]c(=O)c3ccccc23)ccc1F)N1CCN(C(=O)C2CC2)CC1 [Olaparib]

Synergy or antagonism of second agent with tazemetostat (IC50 shift of second agent) (COV362): C (Synergy > 2× IC50 shift)
Molecule: C/C=C1\NC(=O)[C@H]2CSSCC/C=C/[C@H](CC(=O)N[C@H](C(C)C)C(=O)N2)OC(=O)[C@H](C(C)C)NC1=O [Romidepsin]
Synergy or antagonism of second agent with tazemetostat (IC50 shift of second agent) (COV504): C (key: B: Synergy > 4× IC50 shift; Synergy > 2× IC50 shift; No Effect; Antagonism; X: Not Tested)

Synergy or antagonism of second agent with tazemetostat (IC50 shift of second agent) (CAMA-1): C (Synergy > 2× IC50 shift) | Synergy or antagonism of second agent with tazemetostat (IC50 shift of second agent) (BT474): B (Synergy > 4× IC50 shift) | Synergy or antagonism of second agent with tazemetostat (IC50 shift of second agent) (DU4475): A (Antagonism)
Molecule: Cc1cc(Nc2ccc(NC(=O)c3ccc(Nc4ccnc5ccccc45)cc3)cc2)nc(N)n1 [SGI1027]

More lines, now with the values behind:

Molecule: COc1cc2c(Oc3ccc4[nH]c(C)cc4c3F)ncnc2cc1OCCCN1CCCC1 [AZD2171]
Synergy or antagonism of second agent with tazemetostat (IC50 shift of second agent) (COV504; COV504, 4+3 model): B (Synergy > 4× IC50 shift) | Synergy or antagonism of second agent with tazemetostat (IC50 shift of second agent) (RMUGS*): C (Synergy > 2× IC50 shift) | Synergy or antagonism of second agent with tazemetostat (IC50 shift of second agent) (A2780; A2780, 4+3 model): C (Synergy > 2× IC50 shift) | Synergy or antagonism of second agent with tazemetostat (IC50 shift of second agent) (COV644*): C (Synergy > 2× IC50 shift) | Synergy or antagonism of second agent with tazemetostat (IC50 shift of second agent) (KURAMOCHI): C (Synergy > 2× IC50 shift)

Molecule: Cc1nc(NC(=O)N2CCC[C@H]2C(N)=O)sc1-c1ccnc(C(C)(C)C(F)(F)F)c1 [BYL719]
Synergy or antagonism of second agent with tazemetostat (IC50 shift of second agent) (CAOV-3): C (Synergy > 2× IC50 shift) | Synergy or antagonism of second agent with tazemetostat (IC50 shift of second agent) (COV504; COV504, 4+3 model): B (Synergy > 4× IC50 shift) | Synergy or antagonism of second agent with tazemetostat (IC50 shift of second agent) (OVISE): C (Synergy > 2× IC50 shift) | Synergy or antagonism of second agent with tazemetostat (IC50 shift of second agent) (SKOV3): C (Synergy > 2× IC50 shift) | Synergy or antagonism of second agent with tazemetostat (IC50 shift of second agent) (A2780; A2780, 4+3 model): B (Synergy > 4× IC50 shift) | Synergy or antagonism of second agent with tazemetostat (IC50 shift of second agent) (COV644*): C (Synergy > 2× IC50 shift) | Synergy or antagonism of second agent with tazemetostat (IC50 shift of second agent) (SNU840): B (Synergy > 4× IC50 shift) | Synergy or antagonism of second agent with tazemetostat (IC50 shift of second agent) (TOV112D): C (Synergy > 2× IC50 shift)

Molecule: N.N.O=C([O-])C1(C(=O)[O-])CCC1.[Pt+2] [Carboplatin]
Synergy or antagonism of second agent with tazemetostat (IC50 shift of second agent) (A2780; A2780, 4+3 model): B (Synergy > 4× IC50 shift)

Molecule: Nc1ccn([C@@H]2O[C@H](CO)[C@@H](O)C2(F)F)c(=O)n1 [Gemcitabine]
Synergy or antagonism of second agent with tazemetostat (IC50 shift of second agent) (COV504; COV504, 4+3 model): C (Synergy > 2× IC50 shift) | Synergy or antagonism of second agent with tazemetostat (IC50 shift of second agent) (RMUGS*): B (Synergy > 4× IC50 shift) | Synergy or antagonism of second agent with tazemetostat (IC50 shift of second agent) (SKOV3): C (Synergy > 2× IC50 shift) | Synergy or antagonism of second agent with tazemetostat (IC50 shift of second agent) (A2780; A2780, 4+3 model): B (Synergy > 4× IC50 shift) | Synergy or antagonism of second agent with tazemetostat (IC50 shift of second agent) (HCC1419): C (Synergy > 2× IC50 shift)

Molecule: C=CCn1c(=O)c2cnc(Nc3ccc(N4CCN(C)CC4)cc3)nc2n1-c1cccc(C(C)(C)O)n1 [MK1775]
Synergy or antagonism of second agent with tazemetostat (IC50 shift of second agent) (CAOV-3): C (Synergy > 2× IC50 shift) | Synergy or antagonism of second agent with tazemetostat (IC50 shift of second agent) (COV504; COV504, 4+3 model): C (Synergy > 2× IC50 shift) | Synergy or antagonism of second agent with tazemetostat (IC50 shift of second agent) (RMUGS*): B (Synergy > 4× IC50 shift) | Synergy or antagonism of second agent with tazemetostat (IC50 shift of second agent) (SKOV3): C (Synergy > 2× IC50 shift) | Synergy or antagonism of second agent with tazemetostat (IC50 shift of second agent) (A2780; A2780, 4+3 model): B (Synergy > 4× IC50 shift) | Synergy or antagonism of second agent with tazemetostat (IC50 shift of second agent) (JH)S-4): C (Synergy > 2× IC50 shift) | Synergy or antagonism of second agent with tazemetostat (IC50 shift of second agent) (COV644*): B (Synergy > 4× IC50 shift) | Synergy or antagonism of second agent with tazemetostat (IC50 shift of second agent) (TOV112D): C (Synergy > 2× IC50 shift) | Synergy or antagonism of second agent with tazemetostat (IC50 shift of second agent) (KURAMOCHI): C (Synergy > 2× IC50 shift)

Molecule: Cc1[nH]c2ccccc2c1CCNCc1ccc(/C=C/C(=O)NO)cc1 [Panobinostat]
Synergy or antagonism of second agent with tazemetostat (IC50 shift of second agent) (TOV21G): C (Synergy > 2× IC50 shift) | Synergy or antagonism of second agent with tazemetostat (IC50 shift of second agent) (CAOV-3): C (Synergy > 2× IC50 shift) | Synergy or antagonism of second agent with tazemetostat (IC50 shift of second agent) (COV504; COV504, 4+3 model): B (Synergy > 4× IC50 shift) | Synergy or antagonism of second agent with tazemetostat (IC50 shift of second agent) (OVISE): C (Synergy > 2× IC50 shift) | Synergy or antagonism of second agent with tazemetostat (IC50 shift of second agent) (OV-90): C (Synergy > 2× IC50 shift) | Synergy or antagonism of second agent with tazemetostat (IC50 shift of second agent) (SKOV3): B (Synergy > 4× IC50 shift) | Synergy or antagonism of second agent with tazemetostat (IC50 shift of second agent) (A2780; A2780, 4+3 model): B (Synergy > 4× IC50 shift) | Synergy or antagonism of second agent with tazemetostat (IC50 shift of second agent) (OVMANA): C (Synergy > 2× IC50 shift) | Synergy or antagonism of second agent with tazemetostat (IC50 shift of second agent) (COV362): C (Synergy > 2× IC50 shift) | Synergy or antagonism of second agent with tazemetostat (IC50 shift of second agent) (OVSAHO): C (Synergy > 2× IC50 shift) | Synergy or antagonism of second agent with tazemetostat (IC50 shift of second agent) (JH)S-4): C (Synergy > 2× IC50 shift) | Synergy or antagonism of second agent with tazemetostat (IC50 shift of second agent) (COV644*): C (Synergy > 2× IC50 shift) | Synergy or antagonism of second agent with tazemetostat (IC50 shift of second agent) (SNU840): C (Synergy > 2× IC50 shift) | Synergy or antagonism of second agent with tazemetostat (IC50 shift of second agent) (TOV112D): C (Synergy > 2× IC50 shift) | Synergy or antagonism of second agent with tazemetostat (IC50 shift of second agent) (KURAMOCHI): C (Synergy > 2× IC50 shift)

Molecule: CS(=O)(=O)N1CCN(Cc2cc3nc(-c4cccc5[nH]ncc45)nc(N4CCOCC4)c3s2)CC1 [Pictilisib]
Synergy or antagonism of second agent with tazemetostat (IC50 shift of second agent) (CAOV-3): C (Synergy > 2× IC50 shift) | Synergy or antagonism of second agent with tazemetostat (IC50 shift of second agent) (A2780; A2780, 4+3 model): C (Synergy > 2× IC50 shift) | Synergy or antagonism of second agent with tazemetostat (IC50 shift of second agent) (OVMANA): C (Synergy > 2× IC50 shift) | Synergy or antagonism of second agent with tazemetostat (IC50 shift of second agent) (COV644*): C (Synergy > 2× IC50 shift) | Synergy or antagonism of second agent with tazemetostat (IC50 shift of second agent) (SNU840): C (Synergy > 2× IC50 shift)

Molecule: CCCS(=O)(=O)Nc1ccc(F)c(C(=O)c2c[nH]c3ncc(-c4ccc(Cl)cc4)cc23)c1F [Vemurafenib]
Synergy or antagonism of second agent with tazemetostat (IC50 shift of second agent) (ES-2): C (Synergy > 2× IC50 shift)

Molecule: AZD5363
Synergy or antagonism of second agent with tazemetostat (IC50 shift of second agent) (A2780): B (key: B: Synergy > 4× IC50 shift; Synergy > 2× IC50 shift; No Effect; Antagonism; X: Not Tested)
